Results on two molecules are retold here after ChEMBL document CHEMBL4411260, “Dual Inhibition of TYK2 and JAK1 for the Treatment of Autoimmune Diseases: Discovery of (( S)-2,2-Difluorocyclopropyl)((1 R,5 S)-3-(2-((1-methyl-1 H-pyrazol-4-yl)amino)pyrimidin-4-yl)-3,8-diazabicyclo[3.2.1]octan-8-yl)methanone (PF-06700841)” (J Med Chem, 2018).

Broadly, the bioavailability is dose-corrected exposure relative to a reference, in per cent. A lower bioavailability goes with poor availability. In general, Cmax refers to the highest concentration seen after dosing. In general, AUC(0-inf) refers to the area under the concentration-time curve extrapolated to infinity. The inhibition is the relative decrease from the control value, in per cent.

Series [1] in a line: Plasma clearance in Sprague-Dawley rat at 1 mg/kg, iv or 3 mg/kg, po. Type of series: ADME, organism-based.
Series [2] can be described thus: Volume of distribution at steady state in Sprague-Dawley rat at 1 mg/kg, iv or 3 mg/kg, po. Type of series: ADME, organism-based. The following applies: in vivo, read-out: Vdss.
Series [3] in a line: Oral bioavailability in Sprague-Dawley rat at 3 mg/kg. The format is ADME, organism-based. The following applies: in vivo.
Series [4] in a line: Cmax in Sprague-Dawley rat at 3 mg/kg, po. On the set-up: dose 3 mg/kg, route oral. The format is ADME, organism-based. Conditions: in vivo.
Series [5] in a line: AUC (0 to infinity) in Sprague-Dawley rat at 3 mg/kg, po. The format is ADME, organism-based. More on the design: dose 3 mg/kg, time infinity, route oral. Conditions: in vivo.
The nature of series [6]: Cmax in complete freund's adjuvant-induced Lewis rat arthritis model plasma at 3 mg/kg, po qd administered via gavage treated for 7 consecutive days measured after 30 mins post last dose. Type of series: ADME, organism-based. On the set-up: dose 3 mg/kg, route oral. Conditions: in vivo, 0.5 h.
Series [7] is described as follows: Cmin in complete freund's adjuvant-induced Lewis rat arthritis model plasma at 3 mg/kg, po qd administered via gavage treated for 7 consecutive days measured after 24 hrs post last dose. The format is ADME, organism-based. The following applies: read-out: Cmin.
The nature of series [8]: Cmax in complete freund's adjuvant-induced Lewis rat arthritis model plasma at 10 mg/kg, po qd administered via gavage treated for 7 consecutive days measured after 30 mins post last dose. On the set-up: dose 10 mg/kg, route oral. The format is ADME, organism-based.
A short description of series [9]: Cmin in complete freund's adjuvant-induced Lewis rat arthritis model plasma at 10 mg/kg, po qd administered via gavage treated for 7 consecutive days measured after 24 hrs post last dose. Type of series: ADME, organism-based. Conditions: read-out: Cmin.
Series [10] is described as follows: Cmax in complete freund's adjuvant-induced Lewis rat arthritis model plasma at 30 mg/kg, po qd administered via gavage treated for 7 consecutive days measured after 30 mins post last dose. The format is ADME, organism-based. On the set-up: dose 30 mg/kg, route oral.
Series [11] can be described thus: Cmin in complete freund's adjuvant-induced Lewis rat arthritis model plasma at 30 mg/kg, po qd administered via gavage treated for 7 consecutive days measured after 24 hrs post last dose. The format is ADME, organism-based. Conditions: read-out: Cmin.
Series [12] concerns the target T1, Non-receptor tyrosine-protein kinase TYK2 (Homo sapiens, UniProt P29597). Nature of the series: Inhibition of N-terminal GST tagged human TYK2 (871 to 1187 end residues) catalytic domain expressed in baculovirus expression system at 1 uM in presence of ATP at its Km level relative to control.
In series [13] the target is T2, Tyrosine-protein kinase JAK1 (Homo sapiens, UniProt P23458). The series is described as follows: Inhibition of N-terminal GST tagged human JAK1 (850 to 1154 end residues) catalytic domain expressed in baculovirus expression system at 1 uM in presence of ATP at its Km level relative to control.
T2 sequence (P23458 whole entry, the tested form may be a part): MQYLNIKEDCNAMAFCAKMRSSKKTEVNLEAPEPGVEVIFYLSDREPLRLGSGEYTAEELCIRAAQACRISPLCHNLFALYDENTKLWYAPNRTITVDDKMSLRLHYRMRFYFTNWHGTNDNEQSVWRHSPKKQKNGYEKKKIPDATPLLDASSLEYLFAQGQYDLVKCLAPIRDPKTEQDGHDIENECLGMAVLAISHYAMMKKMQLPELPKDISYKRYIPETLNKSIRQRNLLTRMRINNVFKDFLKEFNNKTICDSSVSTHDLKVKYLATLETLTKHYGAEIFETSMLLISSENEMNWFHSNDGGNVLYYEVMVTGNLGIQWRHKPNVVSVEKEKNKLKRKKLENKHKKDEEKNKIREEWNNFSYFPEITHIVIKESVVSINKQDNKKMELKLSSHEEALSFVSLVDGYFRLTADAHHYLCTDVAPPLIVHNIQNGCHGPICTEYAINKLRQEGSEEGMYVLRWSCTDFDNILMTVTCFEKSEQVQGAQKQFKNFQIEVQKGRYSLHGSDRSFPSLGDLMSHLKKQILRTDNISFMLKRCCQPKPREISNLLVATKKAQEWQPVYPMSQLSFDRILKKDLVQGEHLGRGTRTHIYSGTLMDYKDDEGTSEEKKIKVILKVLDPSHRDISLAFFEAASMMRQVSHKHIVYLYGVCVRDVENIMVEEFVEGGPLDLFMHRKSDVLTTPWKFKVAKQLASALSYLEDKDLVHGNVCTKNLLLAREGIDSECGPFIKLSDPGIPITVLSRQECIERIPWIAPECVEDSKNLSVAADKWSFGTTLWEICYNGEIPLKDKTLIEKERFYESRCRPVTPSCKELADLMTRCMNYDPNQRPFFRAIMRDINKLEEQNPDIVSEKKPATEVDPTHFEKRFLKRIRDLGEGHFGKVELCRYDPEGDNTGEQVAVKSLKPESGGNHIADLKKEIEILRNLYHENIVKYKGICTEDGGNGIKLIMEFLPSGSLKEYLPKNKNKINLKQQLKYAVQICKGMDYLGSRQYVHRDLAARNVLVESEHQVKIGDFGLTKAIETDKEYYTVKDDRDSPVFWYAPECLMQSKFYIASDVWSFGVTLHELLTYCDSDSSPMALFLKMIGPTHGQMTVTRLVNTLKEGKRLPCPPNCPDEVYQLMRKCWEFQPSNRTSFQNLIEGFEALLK
The target in series [14] is T3, Tyrosine-protein kinase JAK2 (Homo sapiens, UniProt O60674). Nature of the series: Inhibition of N-terminal His tagged human JAK2 (826 to 1132 end residues) catalytic domain expressed in baculovirus expression system at 1 uM in presence of ATP at its Km level relative to control.
T3 sequence (O60674 whole entry, the tested form may be a part): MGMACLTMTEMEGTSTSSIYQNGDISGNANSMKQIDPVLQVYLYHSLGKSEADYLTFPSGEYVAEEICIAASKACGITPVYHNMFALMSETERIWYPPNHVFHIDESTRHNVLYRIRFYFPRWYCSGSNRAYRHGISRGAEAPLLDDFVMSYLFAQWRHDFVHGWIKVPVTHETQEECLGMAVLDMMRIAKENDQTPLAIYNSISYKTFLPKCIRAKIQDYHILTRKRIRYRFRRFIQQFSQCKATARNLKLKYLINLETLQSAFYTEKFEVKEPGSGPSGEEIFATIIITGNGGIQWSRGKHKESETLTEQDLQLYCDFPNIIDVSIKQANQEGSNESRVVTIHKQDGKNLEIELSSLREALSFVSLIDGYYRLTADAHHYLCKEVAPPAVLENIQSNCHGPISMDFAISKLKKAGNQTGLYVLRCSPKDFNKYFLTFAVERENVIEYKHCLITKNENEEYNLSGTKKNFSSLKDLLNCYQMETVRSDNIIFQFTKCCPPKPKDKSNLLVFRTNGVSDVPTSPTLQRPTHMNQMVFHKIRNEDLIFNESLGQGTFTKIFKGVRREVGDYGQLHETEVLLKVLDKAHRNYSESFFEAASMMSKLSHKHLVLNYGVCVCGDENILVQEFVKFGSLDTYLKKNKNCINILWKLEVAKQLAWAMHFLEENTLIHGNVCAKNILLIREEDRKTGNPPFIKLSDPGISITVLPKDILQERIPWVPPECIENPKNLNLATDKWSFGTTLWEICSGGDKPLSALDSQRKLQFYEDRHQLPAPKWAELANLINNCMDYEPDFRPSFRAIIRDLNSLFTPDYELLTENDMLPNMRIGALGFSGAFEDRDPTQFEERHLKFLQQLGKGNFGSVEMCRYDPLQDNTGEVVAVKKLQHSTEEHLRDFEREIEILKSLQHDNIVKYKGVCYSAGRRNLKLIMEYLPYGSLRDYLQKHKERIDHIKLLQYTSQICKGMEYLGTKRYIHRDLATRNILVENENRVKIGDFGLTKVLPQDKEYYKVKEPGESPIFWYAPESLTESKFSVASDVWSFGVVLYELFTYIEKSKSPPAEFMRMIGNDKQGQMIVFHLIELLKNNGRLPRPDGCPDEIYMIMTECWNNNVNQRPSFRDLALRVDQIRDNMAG
Series [15] addresses Non-receptor tyrosine-protein kinase TNK1 (Homo sapiens) (UniProt Q13470). Nature of the series: Inhibition of N-terminal GST tagged human TNK1 (106 to 390 residues) catalytic domain expressed in baculovirus expression system at 1 uM in presence of ATP at its Km level relative to control.
Series [16] deals with Tyrosine-protein kinase JAK3 (Homo sapiens) (UniProt P52333). Nature of the series: Inhibition of N-terminal His tagged human JAK3 (795 to 1124 end residues) catalytic domain expressed in baculovirus expression system at 1 uM in presence of ATP at its Km level relative to control.
Series [17] addresses Serine/threonine-protein kinase SIK2 (Homo sapiens) (UniProt Q9H0K1). The series is described as follows: Inhibition of N-terminal GST tagged full length human QIK (1 to 926 end residues) expressed in baculovirus expression system at 1 uM in presence of ATP at its Km level relative to control.
The target in series [18] is Activated CDC42 kinase 1 (Homo sapiens) (UniProt Q07912). Nature of the series: Inhibition of N-terminal GST tagged human ACK (110 to 476 residues) catalytic domain expressed in baculovirus expression system at 1 uM in presence of ATP at its Km level relative to control.
In series [19] the test system is Platelet-derived growth factor receptor alpha (Homo sapiens), P16234 [T674I]. Nature of the series: Inhibition of N-terminal GST tagged human PDGFRalpha (550 to 1089 end residues) catalytic domain T674I mutant expressed in baculovirus expression system at 1 uM in presence of ATP at its Km level relative to control.
Series [20] concerns the target Serine/threonine-protein kinase SIK1 (Homo sapiens) (UniProt P57059). The series is described as follows: Inhibition of N-terminal GST tagged full length human SIK (1 to 783 end residues) expressed in baculovirus expression system at 1 uM in presence of ATP at its Km level relative to control.
For series [21], the target named is Platelet-derived growth factor receptor alpha (Homo sapiens) (UniProt P16234). Nature of the series: Inhibition of N-terminal GST tagged human PDGFRalpha (550 to 1089 end residues) cytoplasmic domain expressed in baculovirus expression system at 1 uM in presence of ATP at its Km level relative to control.
Series [22] deals with Dual specificity mitogen-activated protein kinase kinase 5 (Homo sapiens) (UniProt Q13163). The series is described as follows: Inhibition of N-terminal GST tagged full length human MAP2K5 (1 to 448 end residues) co-expressing His tagged MAP3K3/ CDC37/HSP90 expressed in baculovirus expression system at 1 uM in presence of ATP at its Km level relative to control.
Series [23] has as its target MAP kinase-interacting serine/threonine-protein kinase 2 (Homo sapiens) (UniProt Q9HBH9). Nature of the series: Inhibition of N-terminal GST tagged full length human MNK2 (1 to 465 end residues) expressed in baculovirus expression system at 1 uM in presence of ATP at its Km level relative to control.
Series [24] deals with Platelet-derived growth factor receptor beta (Homo sapiens) (UniProt P09619). Nature of the series: Inhibition of N-terminal GST tagged human PDGFRbeta (557 to 1106 end residues) cytoplasmic domain expressed in baculovirus expression system at 1 uM in presence of ATP at its Km level relative to control.
For series [25], the target named is Mitogen-activated protein kinase 7 (Homo sapiens) (UniProt Q13164). The series is described as follows: Inhibition of N-terminal GST tagged human ERK5 (1 to 398 residues) cytoplasmic domain expressed in Escherichia coli at 1 uM in presence of ATP at its Km level relative to control.
Series [26] addresses Aurora kinase A (Homo sapiens) (UniProt O14965). Nature of the series: Inhibition of N-terminal GST tagged full length human AurA (1 to 403 end residues) expressed in baculovirus expression system at 1 uM in presence of ATP at its Km level relative to control.
Series [27] relates to Platelet-derived growth factor receptor alpha (Homo sapiens), P16234 [V561D]. Nature of the series: Inhibition of N-terminal GST tagged human PDGFRalpha (550 to 1089 end residues) catalytic domain V561D mutant expressed in baculovirus expression system at 1 uM in presence of ATP at its Km level relative to control.
For series [28], the target named is NUAK family SNF1-like kinase 1 (Homo sapiens) (UniProt O60285). Nature of the series: Inhibition of N-terminal GST tagged full length human Nuak1 (1 to 661 end residues) expressed in baculovirus expression system at 1 uM in presence of ATP at its Km level relative to control.
For series [29], the target named is Macrophage colony-stimulating factor 1 receptor (Homo sapiens) (UniProt P07333). The series is described as follows: Inhibition of N-terminal GST tagged human FMS (538 to 972 end residues) cytoplasmic domain expressed in baculovirus expression system at 1 uM in presence of ATP at its Km level relative to control.
Series [30] addresses MAP/microtubule affinity-regulating kinase 4 (Homo sapiens) (UniProt Q96L34). Nature of the series: Inhibition of N-terminal GST tagged full length human MARK4 (1 to 688 end residues) expressed in baculovirus expression system at 1 uM in presence of ATP at its Km level relative to control.
The target in series [31] is MAP/microtubule affinity-regulating kinase 3 (Homo sapiens) (UniProt P27448). The series is described as follows: Inhibition of N-terminal GST tagged full length human MARK3 (1 to 729 end residues) expressed in baculovirus expression system at 1 uM in presence of ATP at its Km level relative to control.
Series [32] deals with T1, Non-receptor tyrosine-protein kinase TYK2. The series is described as follows: Inhibition of N-terminal GST tagged human TYK2 (871 to 1187 end residues) catalytic domain expressed in baculovirus expression system at 1 uM in presence of 1 mM ATP relative to control.
Series [33] deals with T2, Tyrosine-protein kinase JAK1. The series is described as follows: Inhibition of N-terminal GST tagged human JAK1 (850 to 1154 end residues) catalytic domain expressed in baculovirus expression system at 1 uM in presence of 1 mM ATP relative to control.
Series [34] addresses T3, Tyrosine-protein kinase JAK2. Nature of the series: Inhibition of N-terminal His tagged human JAK2 (826 to 1132 end residues) catalytic domain expressed in baculovirus expression system at 1 uM in presence of 1 mM ATP relative to control.
In series [35] the target is Non-receptor tyrosine-protein kinase TNK1 (Homo sapiens) (UniProt Q13470). The series is described as follows: Inhibition of N-terminal GST tagged human TNK1 (106 to 390 residues) catalytic domain expressed in baculovirus expression system at 1 uM in presence of 1 mM ATP relative to control.
Non-receptor tyrosine-protein kinase TNK1 (Homo sapiens), sequence (Q13470 whole entry, the tested form may be a part): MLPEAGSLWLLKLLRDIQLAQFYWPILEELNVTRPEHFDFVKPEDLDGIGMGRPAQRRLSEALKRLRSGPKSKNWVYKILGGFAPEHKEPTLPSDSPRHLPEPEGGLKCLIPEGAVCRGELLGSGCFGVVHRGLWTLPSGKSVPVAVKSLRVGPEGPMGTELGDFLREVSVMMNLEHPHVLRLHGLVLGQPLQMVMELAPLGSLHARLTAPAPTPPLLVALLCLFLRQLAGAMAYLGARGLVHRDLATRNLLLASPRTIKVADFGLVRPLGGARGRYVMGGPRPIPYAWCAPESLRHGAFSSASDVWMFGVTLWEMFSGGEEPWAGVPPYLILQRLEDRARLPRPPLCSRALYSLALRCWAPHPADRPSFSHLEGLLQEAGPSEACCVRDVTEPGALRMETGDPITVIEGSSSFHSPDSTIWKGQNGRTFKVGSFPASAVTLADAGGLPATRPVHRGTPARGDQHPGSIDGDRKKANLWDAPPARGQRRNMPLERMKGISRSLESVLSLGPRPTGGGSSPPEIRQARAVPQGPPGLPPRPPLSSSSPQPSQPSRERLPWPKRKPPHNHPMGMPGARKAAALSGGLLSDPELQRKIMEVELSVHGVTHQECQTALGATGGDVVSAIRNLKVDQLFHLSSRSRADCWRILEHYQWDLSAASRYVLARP
The next series concerns Rattus norvegicus. Nature of the series: Antiarthritic activity in complete freund's adjuvant-induced Lewis rat arthritis model assessed as reduction in paw volume administered orally as once daily dose via gavage treated for 7 consecutive days by plethysmography. The format is functional, organism-based.

T1 sequence (P29597 whole entry, the tested form may be a part): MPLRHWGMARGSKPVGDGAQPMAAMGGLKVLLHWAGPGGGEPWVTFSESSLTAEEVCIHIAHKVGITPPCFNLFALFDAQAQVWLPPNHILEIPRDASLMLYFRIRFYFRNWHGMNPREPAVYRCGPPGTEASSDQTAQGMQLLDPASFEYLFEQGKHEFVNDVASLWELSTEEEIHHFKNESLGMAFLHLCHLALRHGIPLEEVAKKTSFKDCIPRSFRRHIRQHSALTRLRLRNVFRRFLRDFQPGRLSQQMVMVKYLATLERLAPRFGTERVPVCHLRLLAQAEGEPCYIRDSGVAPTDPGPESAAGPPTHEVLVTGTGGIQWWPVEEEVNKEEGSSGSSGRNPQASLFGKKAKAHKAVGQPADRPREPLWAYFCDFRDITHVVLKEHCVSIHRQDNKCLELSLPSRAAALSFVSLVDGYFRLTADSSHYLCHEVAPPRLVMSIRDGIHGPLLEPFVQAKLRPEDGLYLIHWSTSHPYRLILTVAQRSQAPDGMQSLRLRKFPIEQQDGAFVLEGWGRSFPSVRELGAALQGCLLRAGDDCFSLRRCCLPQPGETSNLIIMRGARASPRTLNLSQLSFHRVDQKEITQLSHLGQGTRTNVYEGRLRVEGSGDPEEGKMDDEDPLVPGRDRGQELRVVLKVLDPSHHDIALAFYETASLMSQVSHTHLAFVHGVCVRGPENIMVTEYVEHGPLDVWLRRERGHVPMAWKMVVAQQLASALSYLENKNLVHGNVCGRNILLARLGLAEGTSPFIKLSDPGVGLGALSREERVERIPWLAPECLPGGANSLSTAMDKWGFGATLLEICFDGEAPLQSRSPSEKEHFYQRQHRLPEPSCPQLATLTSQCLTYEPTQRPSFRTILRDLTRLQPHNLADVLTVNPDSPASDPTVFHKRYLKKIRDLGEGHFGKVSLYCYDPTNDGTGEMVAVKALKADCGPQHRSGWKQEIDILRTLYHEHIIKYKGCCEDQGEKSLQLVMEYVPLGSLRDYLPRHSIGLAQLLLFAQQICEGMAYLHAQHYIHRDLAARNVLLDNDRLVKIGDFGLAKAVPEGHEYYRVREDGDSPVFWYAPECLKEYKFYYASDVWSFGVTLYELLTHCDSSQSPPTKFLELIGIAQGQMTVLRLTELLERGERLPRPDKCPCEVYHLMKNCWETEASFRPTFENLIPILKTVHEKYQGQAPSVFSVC
MAP kinase-interacting serine/threonine-protein kinase 2 (Homo sapiens), sequence (Q9HBH9 whole entry, looked up, the tested form may be a part): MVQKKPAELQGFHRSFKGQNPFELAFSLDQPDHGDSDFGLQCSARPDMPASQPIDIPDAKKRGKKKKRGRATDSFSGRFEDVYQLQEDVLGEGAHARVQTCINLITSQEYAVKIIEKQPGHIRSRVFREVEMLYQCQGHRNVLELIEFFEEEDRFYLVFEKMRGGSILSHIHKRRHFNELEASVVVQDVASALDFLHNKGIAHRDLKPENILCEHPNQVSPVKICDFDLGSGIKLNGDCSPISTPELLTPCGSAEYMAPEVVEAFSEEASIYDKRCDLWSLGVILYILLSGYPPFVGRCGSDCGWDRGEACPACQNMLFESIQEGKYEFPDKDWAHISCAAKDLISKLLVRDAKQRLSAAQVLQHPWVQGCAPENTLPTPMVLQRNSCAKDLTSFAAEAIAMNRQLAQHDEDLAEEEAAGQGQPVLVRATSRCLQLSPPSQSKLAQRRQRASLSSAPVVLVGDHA
Aurora kinase A (Homo sapiens), sequence (O14965 whole entry, the tested form may be a part): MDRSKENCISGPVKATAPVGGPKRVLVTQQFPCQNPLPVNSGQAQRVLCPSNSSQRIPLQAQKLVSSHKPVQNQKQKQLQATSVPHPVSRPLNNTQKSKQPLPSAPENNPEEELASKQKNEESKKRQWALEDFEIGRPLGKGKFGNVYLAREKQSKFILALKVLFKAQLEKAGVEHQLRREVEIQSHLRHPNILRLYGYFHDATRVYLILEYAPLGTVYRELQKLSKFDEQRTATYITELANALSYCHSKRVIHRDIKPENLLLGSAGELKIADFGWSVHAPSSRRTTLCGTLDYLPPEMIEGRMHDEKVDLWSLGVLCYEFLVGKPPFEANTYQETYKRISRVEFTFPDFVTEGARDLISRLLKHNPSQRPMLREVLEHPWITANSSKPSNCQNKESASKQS

As for `Cc1ccc(S(=O)(=O)O)cc1.Cn1cc(Nc2nccc(N3CC4CC[C@H](C3)N4C(=O)[C@@H]3CC3(F)F)n2)cn1` (single isomer, unassigned), the clearance in [1] was 31 mL/min/kg. Further, the Vd in series [2] is 2 L/kg. In series [3], this molecule returned a bioavailability of 83%. Moreover, the Cmax was determined as 774 ng/mL in series [4], 3540 nM in series [6], 11000 nM in series [8] and 23900 nM in [10]. Besides, the AUC(0-inf) in series [5] was 1340 ng·h/mL. In addition, the concentration at 24 h was 22.1 nM in series [7], 60 nM in [9] and 60 nM in [11].
For the molecule `Cn1cc(Nc2nccc(N3CC4CC[C@H](C3)N4C(=O)[C@@H]3CC3(F)F)n2)cn1` (single isomer, unassigned), the inhibition in series [12] came to 101%; in series [13] it was 101%; in series [14] it was 101%; in series [15], 94%; in series [16], 92%; in series [17], 91%. Also, the inhibition turned out to be 82% in series [18]; 78% in series [19]; 77% in [20]; 70% in series [21]; 70% in series [22]; 68% in series [23]. Also, the inhibition in series [24] stood at 66%; in series [25] it was 63%; in [26], 62%; in series [27] it was 60%; in [28], 60%; in series [29], 59%. The inhibition in series [30] stood at 59%; in series [31], 50%; in series [32], 98%; in series [33], 96%; in series [34], 94%; in series [35], 64%. Besides, in the series on Rattus norvegicus, the Activity entry is “Dose-dependent effect”.
